From ChEMBL document CHEMBL1240489, “Discovery of N-{1-[3-(3-oxo-2,3-dihydrobenzo[1,4]oxazin-4-yl)propyl]piperidin-4-yl}-2-phenylacetamide (Lu AE51090): an allosteric muscarinic M1 receptor agonist with unprecedented selectivity and procognitive potential” (J Med Chem, 2010)
pKi: −log10 of the molar value.

Legend:
Phosphodiesterase 4 = Phosphodiesterase 4 (Homo sapiens, UniProt P27815+Q08499+Q07343+Q08493); experiment: Binding affinity to human PDE4 rolipram binding site by radioligand displacement assay; format: protein assay
D(1A) dopamine receptor = D(1A) dopamine receptor (Homo sapiens, UniProt P21728); experiment: Binding affinity to human dopamine D1 receptor by radioligand displacement assay
[1] = Binding affinity to L-type Ca2+ channel DHP binding site by radioligand displacement assay
[2] = target: T1, Muscarinic acetylcholine receptor M2 (Homo sapiens) (UniProt P08172); experiment: Agonist activity at human muscarinic M2 receptor expressed in CHO-K1 cells coexpressing Galpha16 subunit assessed as increase of acetylcholine-induced calcium flux at 10 uM by FLIPR assay relative to acetylcholine; format: functional, cell-based
T1 sequence (whole entry): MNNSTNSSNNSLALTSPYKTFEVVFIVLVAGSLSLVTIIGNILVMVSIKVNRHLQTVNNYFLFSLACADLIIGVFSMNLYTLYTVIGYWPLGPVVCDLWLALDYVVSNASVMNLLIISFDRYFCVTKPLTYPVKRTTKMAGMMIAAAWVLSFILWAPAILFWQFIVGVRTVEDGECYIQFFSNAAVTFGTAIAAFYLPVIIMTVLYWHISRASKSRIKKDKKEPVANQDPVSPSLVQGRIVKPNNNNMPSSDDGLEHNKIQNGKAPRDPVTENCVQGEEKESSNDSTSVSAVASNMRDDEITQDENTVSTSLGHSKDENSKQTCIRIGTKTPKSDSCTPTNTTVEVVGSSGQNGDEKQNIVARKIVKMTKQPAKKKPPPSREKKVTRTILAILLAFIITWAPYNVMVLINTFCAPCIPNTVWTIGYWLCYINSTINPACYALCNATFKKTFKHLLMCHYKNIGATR

[3] = Tmax in rat plasma at 2 mg/kg, po; format: ADME, organism-based; parameters: dose 2 mg/kg, route oral
Endothelin-1 receptor = Endothelin-1 receptor (Homo sapiens, UniProt P25101); experiment: Binding affinity to human ETA receptor by radioligand displacement assay
[4] = Binding affinity to human delta2 opioid receptor by radioligand displacement assay
[5] = target: 5-hydroxytryptamine receptor 1A (Homo sapiens, UniProt P08908); experiment: Binding affinity to human 5-HT1A receptor by radioligand displacement assay
[6] = Binding affinity to L-type Ca2+ channel verapamil site by radioligand displacement assay
[7] = target: Tyrosine-protein kinase Lyn (Homo sapiens, UniProt P07948); experiment: Binding affinity to Lyn by enzyme assay
[8] = target: Mitogen-activated protein kinase 14 (Homo sapiens, UniProt Q16539); experiment: Binding affinity to p38alpha by enzyme assay
[9] = Clearance in rat plasma at 1 mg/kg, iv and 2 mg/kg, po; format: ADME, organism-based
[10] = target: Amine oxidase [flavin-containing] A (Homo sapiens, UniProt P21397); experiment: Binding affinity to MAOA by radioligand displacement assay
[11] = Binding affinity to human muscle-type nicotinic acetylcholine receptor by radioligand displacement assay
Melanocortin receptor 4 = Melanocortin receptor 4 (Homo sapiens, UniProt P32245); experiment: Binding affinity to human MC4 receptor by radioligand displacement assay
[12] = target: 5-hydroxytryptamine receptor 1B (Homo sapiens, UniProt P28222); experiment: Binding affinity to 5-HT1B receptor by radioligand displacement assay
[13] = target: Neuropeptide Y receptor type 1 (Homo sapiens, UniProt P25929); experiment: Binding affinity to human neuropeptide Y1 receptor by radioligand displacement assay
[14] = target: T2, Muscarinic acetylcholine receptor M5 (Homo sapiens, UniProt P08912); experiment: biochemical
T2 sequence (P08912 whole entry): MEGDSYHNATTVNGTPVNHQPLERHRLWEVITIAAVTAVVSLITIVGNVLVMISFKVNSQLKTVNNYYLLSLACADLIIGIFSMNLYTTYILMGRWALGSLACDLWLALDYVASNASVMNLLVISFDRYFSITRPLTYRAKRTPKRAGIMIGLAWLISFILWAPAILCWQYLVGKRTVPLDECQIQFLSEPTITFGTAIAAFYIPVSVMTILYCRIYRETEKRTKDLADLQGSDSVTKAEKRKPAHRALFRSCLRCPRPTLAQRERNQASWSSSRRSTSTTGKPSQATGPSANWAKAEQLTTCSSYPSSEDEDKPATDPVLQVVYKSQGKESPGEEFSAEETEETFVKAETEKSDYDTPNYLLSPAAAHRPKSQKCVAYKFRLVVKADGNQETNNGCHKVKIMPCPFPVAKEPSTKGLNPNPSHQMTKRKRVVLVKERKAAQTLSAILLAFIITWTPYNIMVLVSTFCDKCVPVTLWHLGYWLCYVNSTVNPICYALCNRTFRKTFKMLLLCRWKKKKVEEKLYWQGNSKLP
Description: Displacement of [3H]-4-DAMP from human muscarinic M5 receptor expressed in BHK-21 cells

[15] = target: 5-hydroxytryptamine receptor 4 (Homo sapiens, UniProt Q13639); experiment: Binding affinity to human 5-HT4e receptor by radioligand displacement assay
Hepatocyte = experiment: Intrinsic clearance in human hepatocytes at 1 uM after up to 120 mins by LC/MS-MS analysis; format: ADME, cell-based, Liver; details: 2 h
[16] = Binding affinity to voltage gated Na channel site 2 by radioligand displacement assay
[17] = target: 5-hydroxytryptamine receptor 7 (Homo sapiens, UniProt P34969); experiment: Binding affinity to human 5-HT7 receptor by radioligand displacement assay
D(4) dopamine receptor = D(4) dopamine receptor (Homo sapiens, UniProt P21917); experiment: Binding affinity to human D4.4 receptor by radioligand displacement assay
[18] = target: Alpha-1D adrenergic receptor (Homo sapiens, UniProt P25100); experiment: Binding affinity to human adrenergic Alpha-1D receptor by radioligand displacement assay
[19] = target: Alpha-1B adrenergic receptor (Homo sapiens, UniProt P35368); experiment: Binding affinity to human adrenergic Alpha-1B receptor by radioligand displacement assay
[20] = target: T3, Muscarinic acetylcholine receptor M2 (Homo sapiens, UniProt P08172); experiment: Binding affinity to human muscarinic M2 receptor by radioligand displacement assay
T3 sequence (P08172 whole entry): T1 sequence (whole entry)

[21] = Binding affinity to central benzodiazepine receptor by radioligand displacement assay
Rattus norvegicus = species on record: Rattus norvegicus; experiment: Hepatic blood flow in rat; format: ADME, organism-based, Liver

Chain of 5-hydroxytryptamine receptor 1B (P28222 whole entry): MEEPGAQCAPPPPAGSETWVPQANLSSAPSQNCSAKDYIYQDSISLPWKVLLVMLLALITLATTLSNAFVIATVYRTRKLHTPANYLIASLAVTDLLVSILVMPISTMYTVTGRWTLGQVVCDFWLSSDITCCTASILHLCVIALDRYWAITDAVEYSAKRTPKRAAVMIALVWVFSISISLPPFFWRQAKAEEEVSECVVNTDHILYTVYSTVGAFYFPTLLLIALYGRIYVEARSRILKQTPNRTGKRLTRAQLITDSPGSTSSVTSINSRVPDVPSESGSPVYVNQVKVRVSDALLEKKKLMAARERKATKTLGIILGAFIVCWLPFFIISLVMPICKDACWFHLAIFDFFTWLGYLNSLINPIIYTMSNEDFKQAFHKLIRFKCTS
Chain of D(4) dopamine receptor (P21917 whole entry): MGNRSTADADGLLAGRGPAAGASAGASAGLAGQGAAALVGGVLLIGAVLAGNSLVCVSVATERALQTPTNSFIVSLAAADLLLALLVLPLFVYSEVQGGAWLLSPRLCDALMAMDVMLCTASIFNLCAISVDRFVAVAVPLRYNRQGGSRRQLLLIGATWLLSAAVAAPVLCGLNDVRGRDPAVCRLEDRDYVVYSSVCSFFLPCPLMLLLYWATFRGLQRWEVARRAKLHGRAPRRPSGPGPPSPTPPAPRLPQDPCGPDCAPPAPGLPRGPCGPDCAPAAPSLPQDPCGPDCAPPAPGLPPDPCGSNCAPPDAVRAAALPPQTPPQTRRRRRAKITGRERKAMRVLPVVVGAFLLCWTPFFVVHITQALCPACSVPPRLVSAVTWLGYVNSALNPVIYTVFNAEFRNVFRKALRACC
Chain of Endothelin-1 receptor (P25101 whole entry): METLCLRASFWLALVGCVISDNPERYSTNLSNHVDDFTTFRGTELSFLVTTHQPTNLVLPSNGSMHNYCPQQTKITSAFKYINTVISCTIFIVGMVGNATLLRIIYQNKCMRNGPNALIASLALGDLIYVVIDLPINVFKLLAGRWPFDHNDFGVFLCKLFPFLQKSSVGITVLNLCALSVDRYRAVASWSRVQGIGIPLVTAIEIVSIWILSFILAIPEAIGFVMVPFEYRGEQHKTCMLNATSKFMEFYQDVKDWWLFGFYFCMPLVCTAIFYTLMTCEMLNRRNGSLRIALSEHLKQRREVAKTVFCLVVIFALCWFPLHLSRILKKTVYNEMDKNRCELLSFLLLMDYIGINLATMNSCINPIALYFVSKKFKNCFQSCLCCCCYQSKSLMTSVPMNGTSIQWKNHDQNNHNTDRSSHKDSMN
Chain of Melanocortin receptor 4 (P32245 whole entry): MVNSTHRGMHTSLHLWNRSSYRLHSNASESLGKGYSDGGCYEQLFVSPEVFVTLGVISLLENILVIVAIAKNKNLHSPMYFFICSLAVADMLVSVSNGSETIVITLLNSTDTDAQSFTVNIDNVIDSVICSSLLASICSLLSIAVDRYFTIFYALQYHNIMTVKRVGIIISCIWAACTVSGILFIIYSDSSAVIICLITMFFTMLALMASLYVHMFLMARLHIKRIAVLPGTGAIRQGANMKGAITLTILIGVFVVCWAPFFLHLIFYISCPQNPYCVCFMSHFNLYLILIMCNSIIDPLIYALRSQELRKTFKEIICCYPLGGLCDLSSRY
Chain of Tyrosine-protein kinase Lyn (P07948 whole entry): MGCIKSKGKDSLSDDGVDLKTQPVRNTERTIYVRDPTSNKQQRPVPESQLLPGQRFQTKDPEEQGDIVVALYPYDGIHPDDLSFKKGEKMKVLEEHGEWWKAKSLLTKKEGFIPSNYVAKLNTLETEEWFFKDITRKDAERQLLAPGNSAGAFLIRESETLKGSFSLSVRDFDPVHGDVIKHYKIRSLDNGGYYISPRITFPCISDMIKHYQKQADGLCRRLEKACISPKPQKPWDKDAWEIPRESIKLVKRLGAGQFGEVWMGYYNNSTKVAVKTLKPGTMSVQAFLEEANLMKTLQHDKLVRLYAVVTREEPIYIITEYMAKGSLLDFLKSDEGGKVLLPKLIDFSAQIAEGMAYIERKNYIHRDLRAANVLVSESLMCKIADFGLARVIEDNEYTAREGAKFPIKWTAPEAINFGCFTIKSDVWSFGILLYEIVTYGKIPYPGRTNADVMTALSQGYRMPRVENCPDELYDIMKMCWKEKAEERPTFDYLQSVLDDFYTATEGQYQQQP
Chain of 5-hydroxytryptamine receptor 1A (P08908 whole entry): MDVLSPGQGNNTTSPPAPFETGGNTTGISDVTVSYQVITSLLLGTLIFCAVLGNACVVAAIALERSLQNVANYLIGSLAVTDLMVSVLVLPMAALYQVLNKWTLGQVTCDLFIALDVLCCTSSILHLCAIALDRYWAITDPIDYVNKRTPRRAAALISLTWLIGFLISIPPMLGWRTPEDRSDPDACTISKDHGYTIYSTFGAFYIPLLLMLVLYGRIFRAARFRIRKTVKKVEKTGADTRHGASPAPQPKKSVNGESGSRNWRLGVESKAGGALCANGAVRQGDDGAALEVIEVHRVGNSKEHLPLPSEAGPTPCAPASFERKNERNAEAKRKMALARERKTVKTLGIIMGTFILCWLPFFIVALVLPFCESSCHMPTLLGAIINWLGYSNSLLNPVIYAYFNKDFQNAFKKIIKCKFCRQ
Chain of 5-hydroxytryptamine receptor 4 (Q13639 whole entry): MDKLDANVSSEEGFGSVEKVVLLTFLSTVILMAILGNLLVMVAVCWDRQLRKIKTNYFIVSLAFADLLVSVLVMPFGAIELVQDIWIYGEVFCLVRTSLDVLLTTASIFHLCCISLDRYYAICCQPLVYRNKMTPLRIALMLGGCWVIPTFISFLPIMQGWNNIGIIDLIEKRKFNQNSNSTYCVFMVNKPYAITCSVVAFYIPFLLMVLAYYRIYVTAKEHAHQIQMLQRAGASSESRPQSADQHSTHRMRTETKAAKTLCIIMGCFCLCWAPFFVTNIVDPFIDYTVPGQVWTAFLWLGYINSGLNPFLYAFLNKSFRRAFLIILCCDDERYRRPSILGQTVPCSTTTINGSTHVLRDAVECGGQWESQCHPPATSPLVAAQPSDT
Chain of Mitogen-activated protein kinase 14 (Q16539 whole entry): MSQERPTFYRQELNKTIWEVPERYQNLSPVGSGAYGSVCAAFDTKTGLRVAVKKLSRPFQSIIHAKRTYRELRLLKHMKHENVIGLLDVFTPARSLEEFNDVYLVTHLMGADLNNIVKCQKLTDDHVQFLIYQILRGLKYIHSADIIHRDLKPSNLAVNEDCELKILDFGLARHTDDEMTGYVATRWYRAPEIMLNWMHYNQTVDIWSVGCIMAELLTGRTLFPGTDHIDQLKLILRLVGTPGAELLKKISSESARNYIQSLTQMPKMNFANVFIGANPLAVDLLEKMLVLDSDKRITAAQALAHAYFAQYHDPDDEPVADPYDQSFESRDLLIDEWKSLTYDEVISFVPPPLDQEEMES
Chain of Alpha-1B adrenergic receptor (P35368 whole entry): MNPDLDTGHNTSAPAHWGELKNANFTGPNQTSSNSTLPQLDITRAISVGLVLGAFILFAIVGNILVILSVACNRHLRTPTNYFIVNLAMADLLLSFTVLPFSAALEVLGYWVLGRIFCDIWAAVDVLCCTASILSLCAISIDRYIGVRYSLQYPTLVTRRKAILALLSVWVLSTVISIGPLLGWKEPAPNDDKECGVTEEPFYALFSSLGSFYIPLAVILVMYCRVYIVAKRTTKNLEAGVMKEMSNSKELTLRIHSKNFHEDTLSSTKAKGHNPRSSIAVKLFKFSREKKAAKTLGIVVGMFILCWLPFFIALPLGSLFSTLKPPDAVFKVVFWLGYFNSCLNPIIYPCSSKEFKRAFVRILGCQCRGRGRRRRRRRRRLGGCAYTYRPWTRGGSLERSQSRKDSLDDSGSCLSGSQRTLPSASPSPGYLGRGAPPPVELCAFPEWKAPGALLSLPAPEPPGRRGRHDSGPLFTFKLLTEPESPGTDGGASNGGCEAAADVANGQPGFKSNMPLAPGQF
Chain of 5-hydroxytryptamine receptor 7 (P34969 whole entry): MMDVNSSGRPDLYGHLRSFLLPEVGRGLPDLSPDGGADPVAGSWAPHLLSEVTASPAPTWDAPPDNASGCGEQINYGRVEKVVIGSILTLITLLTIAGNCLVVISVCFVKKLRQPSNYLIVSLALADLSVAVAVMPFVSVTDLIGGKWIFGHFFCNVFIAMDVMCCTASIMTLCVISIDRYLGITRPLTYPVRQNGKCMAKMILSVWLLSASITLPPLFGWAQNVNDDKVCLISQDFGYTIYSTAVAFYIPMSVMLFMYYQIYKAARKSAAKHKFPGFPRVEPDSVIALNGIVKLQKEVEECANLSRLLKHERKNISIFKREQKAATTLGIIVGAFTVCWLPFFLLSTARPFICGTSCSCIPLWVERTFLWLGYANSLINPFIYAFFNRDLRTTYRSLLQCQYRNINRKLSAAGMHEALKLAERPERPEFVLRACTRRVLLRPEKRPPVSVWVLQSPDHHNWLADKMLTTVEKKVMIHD
Chain of D(1A) dopamine receptor (P21728 whole entry): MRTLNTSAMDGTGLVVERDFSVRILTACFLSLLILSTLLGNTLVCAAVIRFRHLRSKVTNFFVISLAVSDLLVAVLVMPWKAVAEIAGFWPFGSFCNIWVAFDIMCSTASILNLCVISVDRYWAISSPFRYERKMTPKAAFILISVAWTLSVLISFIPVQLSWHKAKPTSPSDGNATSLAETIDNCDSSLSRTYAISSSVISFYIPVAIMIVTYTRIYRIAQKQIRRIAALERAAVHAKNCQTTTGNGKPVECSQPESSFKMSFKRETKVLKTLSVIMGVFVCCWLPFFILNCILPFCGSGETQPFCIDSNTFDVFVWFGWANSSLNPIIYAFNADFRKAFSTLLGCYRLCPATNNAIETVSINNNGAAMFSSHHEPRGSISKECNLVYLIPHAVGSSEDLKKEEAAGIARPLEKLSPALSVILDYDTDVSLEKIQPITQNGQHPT

In the case of `O=C(Cc1ccccc1)NC1CCN(CCCN2C(=O)COc3ccccc32)CC1`, the Ki (Phosphodiesterase 4) was “>= 1000 nM”, the pKi (D(1A) dopamine receptor) was at most 6.00 and the pKi [1] was at most 6.00. For the same molecule, the Emax [2] was 0%, the Tmax [3] was 48 min and the pKi (Endothelin-1 receptor) was at most 6.00. For the same molecule, the pKi [4] was at most 6.00, the pKi [5] was at most 6.00 and the pKi [6] was at most 6.00. The pKi [7] was at most 6.00, the pKi [8] was at most 6.00 and the clearance [9] was 83.3 mL/min/kg. For the same molecule, the pKi [10] was at most 6.00, the pKi [11] was at most 6.00 and the pKi (Melanocortin receptor 4) was at most 6.00. It also gave a pKi [12] of at most 6.00, a pKi [13] of at most 6.00 and a pKi [14] of 5.05. The pKi [15] was at most 6.00, the CL (Hepatocyte) was 3.4 L/min and the pKi [16] was at most 6.00. For the same molecule, the pKi [17] was at most 6.00, the pKi (D(4) dopamine receptor) was at most 6.00 and the pKi [18] was at most 6.00. The pKi [19] was 6.04, the pKi [20] was at most 6.00 and the pKi [21] was at most 6.00. The QH (Rattus norvegicus) was 20 mL/min.
